Data as given in PMC6933146 (Biotechnology Reports, 2019).
Blank lines part the entries; values can stand above or below the compound they belong to.

Assays:
Format in all cases: biochemical, Alcaligenes faecalis
[1] = test system: LAC1* (purified extracellular laccase); test: spectrophotometric oxidation; settings: optimized conditions (optimum pH for guaiacol 8), 50-500 μM substrate
[2] = test system: LAC1* (purified extracellular laccase); test: spectrophotometric oxidation at […] nm, Lineweaver-Burk; settings: pH 8.0, 80 °C, 50-500 μM substrate
[3] = test system: LAC1* (purified extracellular laccase); test: spectrophotometric oxidation; settings: optimized conditions (optimum pH for ABTS 5.5), 50-500 μM substrate

Km [1]: 1000 µM
Compound: COc1ccccc1O [Guaiacol]

Km [2]: 480 µM
Compound: COc1cccc(OC)c1O [2,6-DMP]

Km [3]: 500 µM
Compound: CCn1c(=NN=c2sc3cc(S(=O)(=O)O)ccc3n2CC)sc2cc(S(=O)(=O)O)ccc21 [ABTS]
